We go through eleven molecules from ChEMBL document CHEMBL1201862, “PubChem BioAssay data set” (2004).

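48-hour exposure; five concentrations; linearly interpolated endpoints. GI50 marks 50% less growth.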 Activity calls are given as the source filed them. Cut-off read from the data, not from the text of the source: active = GI50 up to about 1.1 µM and inactive = higher. Where a SMILES comes first, the peptide text is derived from it. [ ]: non-standard residue; d: D form. The star is where a group is joined. Cbz = O=C(OCc1ccccc1)*; Aib = CC(C)(N)C(=O)O; OBn = c1ccc(CO*)cc1

Among the test systems are NCI-H460; HOP-62; A498; SK-OV-3; CCRF-CEM; MDA-MB-435; SF-295; TK-10; MCF7; NCI-H226; KM12; NCI-H23; HCT-116; RPMI-8226; HCT-15; UO-31; ACHN; EKVX; SNB-75; SR.
Common to all, as to test: NCI-60 cell line screen, 48 h

For `COc1ccc2c(C=O)c3n(c(=O)c2c1OC)CCc1cc2c(cc1-3)OCO2`, the GI50 in the assay on NCI-H460 is 53.6 µM (inactive); in the assay on HOP-62 it was > 100 µM (inactive); in the assay on A498, > 100 µM (inactive); in the assay on SK-OV-3, > 100 µM (inactive); in the assay on CCRF-CEM, > 100 µM (inactive); in the assay on MDA-MB-435, 22.5 µM (inactive). The GI50 in the assay on SF-295 was 46 µM (inactive); with TK-10 it was 96.8 µM (inactive); in the assay on MCF7, 21.8 µM (inactive); in the assay on NCI-H226, > 100 µM (inactive); in the assay on KM12, 27.9 µM (inactive); in the assay on NCI-H23, 27.2 µM (inactive). The GI50 in the assay on HCT-116 was 26.3 µM (inactive); in the assay with RPMI-8226 it was 3.68 µM (inactive); in the assay on HCT-15, 27.7 µM; in the assay on UO-31 it was 51.8 µM (inactive); with ACHN it was 69.2 µM (inactive); in the assay with EKVX, 35.6 µM (inactive). The GI50 with SNB-75 is 18.9 µM (inactive).

In the case of `CC(NC(=O)C(C)(C)NC(=O)C(CC(=O)OCc1ccccc1)NC(=O)OCc1ccccc1)C(N)=O` (stereo unspecified) (Cbz-Asp(OBn)-[Aib]-Ala-NH2; configuration not given here), the GI50 in the assay with NCI-H460, in the assay on HOP-62, in the assay with SR, in the assay on SK-OV-3, in the assay with CCRF-CEM and in the assay on MDA-MB-435 was > 100 µM (inactive) throughout. Also, the GI50 is 43 µM (inactive) with SF-295; > 100 µM (inactive) in the assay with TK-10; > 100 µM (inactive) with MCF7; > 100 µM (inactive) in the assay on NCI-H226; > 100 µM (inactive) in the assay with KM12; > 100 µM (inactive) with NCI-H23. For the same molecule, the GI50 with HCT-116 is > 100 µM (inactive); in the assay on RPMI-8226, > 100 µM (inactive); with HCT-15 it was over 100 µM; with UO-31, > 100 µM (inactive); in the assay on ACHN, > 100 µM (inactive); with EKVX it was > 100 µM (inactive).

For the molecule `O=c1[nH]nc(Cc2ccccc2)n1/N=C/c1ccccc1Cl`, the GI50 is > 100 µM (inactive) in the assay with NCI-H460; > 100 µM (inactive) with A498; > 100 µM (inactive) with SR; > 100 µM (inactive) in the assay on SK-OV-3; > 100 µM (inactive) in the assay with MDA-MB-435; 52.2 µM (inactive) with SF-295. In addition, the GI50 in the assay on TK-10, in the assay with MCF7, with NCI-H226, in the assay with KM12, in the assay with NCI-H23 and in the assay with HCT-116 was > 100 µM (inactive) in each case. The GI50 is > 100 µM (inactive) in the assay with RPMI-8226; over 100 µM in the assay with HCT-15; > 100 µM (inactive) in the assay on UO-31; > 100 µM (inactive) in the assay on ACHN; > 100 µM (inactive) with EKVX.

Turning to `Cc1ccc(S(=O)(=O)c2c(O)c3ccccc3n(C)c2=O)cc1`, the GI50 with NCI-H460, with HOP-62, in the assay on A498, in the assay with SK-OV-3, with CCRF-CEM and in the assay on MDA-MB-435 was > 100 µM (inactive) throughout. Besides, the GI50 in the assay on SF-295, in the assay with MCF7, with NCI-H226, in the assay on KM12, with NCI-H23 and in the assay on HCT-116 was > 100 µM (inactive) each time. In addition, the GI50 in the assay with RPMI-8226 is > 100 µM (inactive); with HCT-15, over 100 µM; in the assay on UO-31, > 100 µM (inactive); in the assay with EKVX it was > 100 µM (inactive); in the assay with SNB-75, > 100 µM (inactive).

On to `C=C1CN(C2=NCCO2)C1`, for which the GI50 with NCI-H460, in the assay on HOP-62, in the assay with SR, in the assay on CCRF-CEM, with MDA-MB-435 and in the assay with SF-295 was > 100 µM (inactive) throughout. Besides, the GI50 in the assay with TK-10, in the assay with MCF7, in the assay with NCI-H226, in the assay on KM12, with NCI-H23 and in the assay on HCT-116 was > 100 µM (inactive) throughout. Besides, the GI50 was > 100 µM (inactive) with RPMI-8226; over 100 µM in the assay with HCT-15; > 100 µM (inactive) in the assay with UO-31; > 100 µM (inactive) with ACHN; > 100 µM (inactive) in the assay on EKVX; > 100 µM (inactive) in the assay with SNB-75.

For the molecule `O=C(O)C1CCCCC1C(=O)Nn1cnnc1` (stereo unspecified), the GI50 in the assay with HOP-62, in the assay with SR, with SK-OV-3, in the assay with CCRF-CEM, with MDA-MB-435 and with SF-295 was > 100 µM (inactive) throughout. The GI50 with TK-10, in the assay on MCF7, in the assay on KM12, with NCI-H23, in the assay on HCT-116 and with RPMI-8226 was > 100 µM (inactive) in each case. The GI50 is over 100 µM in the assay with HCT-15; > 100 µM (inactive) with UO-31; > 100 µM (inactive) in the assay on ACHN; > 100 µM (inactive) with EKVX; > 100 µM (inactive) in the assay with SNB-75.

Consider `CC(=O)Oc1c(C)cc2c(c1C)C(C)CN2C(C)=O` (stereo unspecified), for which the GI50 in the assay with NCI-H460, with HOP-62, in the assay on A498, with SK-OV-3, in the assay on CCRF-CEM and with MDA-MB-435 was > 100 µM (inactive) throughout. Besides, the GI50 with SF-295, with TK-10, in the assay with MCF7, with NCI-H226, in the assay on KM12 and in the assay on NCI-H23 was > 100 µM (inactive) each time. The GI50 is > 100 µM (inactive) in the assay on HCT-116; > 100 µM (inactive) in the assay on RPMI-8226; over 100 µM in the assay on HCT-15; > 100 µM (inactive) in the assay on UO-31; > 100 µM (inactive) in the assay on ACHN; > 100 µM (inactive) in the assay with EKVX. The GI50 with SNB-75 is 94.2 µM (inactive).

Take `CC(C)(C)OC(=O)NC(Cc1ccc(OCc2ccccc2)cn1)C(=O)O` (stereo unspecified): the GI50 is > 100 µM (inactive) with NCI-H460; > 100 µM (inactive) in the assay with HOP-62; > 100 µM (inactive) in the assay with A498; > 100 µM (inactive) in the assay on SR; > 10 µM (inactive) with CCRF-CEM; > 100 µM (inactive) in the assay with MDA-MB-435. For the same molecule, the GI50 in the assay with SF-295, in the assay with TK-10, with MCF7, in the assay on NCI-H226, in the assay with KM12 and in the assay on NCI-H23 was > 100 µM (inactive) in each case. Also, the GI50 with HCT-116 was > 100 µM (inactive); with RPMI-8226, > 100 µM (inactive); in the assay with HCT-15, over 100 µM; with UO-31, > 100 µM (inactive); in the assay with ACHN it was > 100 µM (inactive); in the assay on EKVX, > 100 µM (inactive).

In the case of `CN(C(=O)c1cc2c(s1)sc1c(=O)n(C)c3ccccc3c12)c1ccccc1`, the GI50 in the assay with NCI-H460 is 2.43 µM (inactive); in the assay on SR, 1.93 µM (inactive); with SK-OV-3, 22.2 µM (inactive); with CCRF-CEM it was 2.74 µM (inactive); in the assay on MDA-MB-435, 0.828 µM (active); in the assay with SF-295 it was 2.25 µM (inactive). The GI50 in the assay with TK-10 is 24.7 µM (inactive); in the assay on MCF7 it was 0.501 µM (active); in the assay with NCI-H226, 5.48 µM (inactive); with KM12, 0.729 µM (active); in the assay on NCI-H23 it was 7.73 µM (inactive); in the assay on HCT-116, 4.93 µM (inactive). Moreover, the GI50 was 1.72 µM in the assay with HCT-15; 6.7 µM (inactive) in the assay with UO-31; 5.46 µM (inactive) in the assay with ACHN; 16.7 µM (inactive) in the assay with EKVX; 4.33 µM (inactive) with SNB-75.

As for `N=C(N)NS(=O)(=O)c1ccc(NC(=O)c2ccc3nc4ccccc4c(N)c3c2)cc1`, the GI50 with NCI-H460, in the assay on HOP-62, in the assay on SR, with SK-OV-3, in the assay with CCRF-CEM and with MDA-MB-435 was > 100 µM (inactive) throughout. Further, the GI50 with SF-295 was > 100 µM (inactive); in the assay on TK-10, > 100 µM (inactive); in the assay with MCF7, > 100 µM (inactive); with NCI-H226 it was > 100 µM (inactive); with KM12 it was 74.6 µM (inactive); in the assay on NCI-H23, > 100 µM (inactive). Besides, the GI50 in the assay on HCT-116 is > 100 µM (inactive); in the assay on RPMI-8226 it was > 100 µM (inactive); with HCT-15, over 100 µM; in the assay on UO-31, > 100 µM (inactive); in the assay on ACHN, > 100 µM (inactive); with EKVX, > 100 µM (inactive). The GI50 with SNB-75 is > 100 µM (inactive).

Consider `O=C(NCCC(F)(F)C(F)(F)C(F)(F)C(F)(F)F)NC1OC(CO)C(O)C(O)C1O` (stereo unspecified), for which the GI50 in the assay with NCI-H460, with HOP-62, in the assay on SR, in the assay with SK-OV-3, in the assay on CCRF-CEM and in the assay on MDA-MB-435 was > 100 µM (inactive) each time. The GI50 in the assay with SF-295, in the assay with TK-10, with MCF7, in the assay on KM12, in the assay on NCI-H23 and in the assay with HCT-116 was > 100 µM (inactive) throughout. In addition, the GI50 in the assay with RPMI-8226 is > 100 µM (inactive); with HCT-15, over 100 µM; with UO-31 it was > 100 µM (inactive); in the assay with ACHN, > 100 µM (inactive); in the assay with SNB-75, > 100 µM (inactive).
